We go through five compounds from patent US6229016A, “Method for treating tumors using 2-aryl-naphthyridin-4-ones” (priority 2000, dated 2001).

Like-named read-outs stand apart in the source and are kept apart here. A value given as a limit tells only on which side of the number the result lay.

For assay [1], the system named is PC-3 prostate cancer cell line. Description: NCI in vitro screen, prostate cancer PC-3. Format: cell-based. Conditions: Homo sapiens, read-out: Cytotoxicity log GI50 (converted).
Assay [2] relates to MDA-N breast cancer cell line. Description: NCI in vitro screen, breast cancer MDA-N. The format is cell-based. The settings on record: Homo sapiens; for IC (TGI): range over four compounds and two cell lines, read-out: log TGI; for GI50: read-out: Cytotoxicity log GI50 (converted).
Assay [3] relates to U-251 CNS cancer cell line. The assay can be described thus: NCI in vitro screen, CNS cancer U-251. Conditions: Homo sapiens, read-out: Cytotoxicity log GI50 (converted). Format: cell-based.
Assay [4] has as its system SK-MEL-5 melanoma cell line. Description: NCI in vitro screen, melanoma SK-MEL-5. Format: cell-based. The settings on record: Homo sapiens, read-out: Cytotoxicity log GI50 (converted).
Assay [5] deals with HL-60(TB) leukemia cell line. Description: cells. Format: cell-based. Conditions: Homo sapiens; for IC (TGI): HL-60, H-60 cell line, range over four compounds, read-out: log TGI; for GI50: HL-60(TB), read-out: Cytotoxicity log GI50 (converted).
Assay [6] relates to SF-295 CNS cancer cell line. The assay can be described thus: NCI in vitro screen, CNS cancer SF-295. The settings on record: Homo sapiens, read-out: Cytotoxicity log GI50 (converted). Format: cell-based.
In assay [7] the test system is HCT-116 colon cancer cell line. The assay can be described thus: NCI in vitro screen, colon cancer HCT-116. The format is cell-based. Conditions: Homo sapiens; HCT-1.16 (head); HCT-116 (footnote); read-out: Cytotoxicity log GI50 (converted).
The test system of another assay is NCI-H226 cell line. Description: NCI in vitro screen, NCI-H226. The format is cell-based. Conditions: Homo sapiens, range over four compounds, read-out: log TGI. The text has this: Compounds 41-51 and 53-68 were submitted to NCI and assayed in the NCI's in vitro disease-oriented antitumor screen, which involves determination of a test compound's effects on the growth of approximately 60 human tumor cell lines. See, M. R. Boyd, et al. In Cancer: Principles and Practice of Oncology Updates; De Vita, V. T., Hellman, S., Rosenberg, S. A., Eds; J. B. Lippincoft: Philadelphia, pp 1-12 (1989); and A. Monks, et al. J. Natl. Cancer Inst. 83:757 (1991). These lines include leukemia, non-small cell lung, colon, central nervous system (CNS), melanoma, ovarian, renal, prostate, and breast cancers.

In assay [8] the test system is 786-0 renal cancer cell line. The assay can be described thus: NCI in vitro screen, renal cancer 786-0. Format: cell-based. Conditions: Homo sapiens, read-out: Cytotoxicity log GI50 (converted).
The subject of assay [9] is NCI's 60 human tumor cell line. Description: NCI 60 human tumor cell line in vitro screen (average / whole panel). Format: cell-based. Conditions: calculated from all cell lines tested, molar concentrations, read-out: average log GI50 (converted).
The subject of assay [10] is MDA-MB-435 breast cancer cell line. Description: NCI in vitro screen, breast cancer MDA-MB-435. Format: cell-based. Conditions: Homo sapiens; for IC (TGI): range over four compounds and two cell lines, read-out: log TGI; for GI50: read-out: Cytotoxicity log GI50 (converted).
The subject of assay [11] is OVCAR-3 ovarian cancer cell line. The assay can be described thus: NCI in vitro screen, ovarian cancer OVCAR-3. The format is cell-based. The settings on record: Homo sapiens, read-out: Cytotoxicity log GI50 (converted).
In assay [12] the test system is NCI-H460 non-small cell lung cancer cell line. The assay can be described thus: NCI in vitro screen, non-small cell lung cancer NCI-H460. The format is cell-based. Conditions: Homo sapiens, read-out: Cytotoxicity log GI50 (converted).
A further assay concerns tubulin. Description: Tubulin polymerization assay. Format: biochemical, bovine. The protocol: Electrophoretically homogeneous bovine brain tubulin was purified as described in E. Hamel, et al. Biochemistry 23:4173 (1984).
The tubulin polymerization assay was performed as described in S. Kuo, et al. J. Med. Chem. 36:1146 (1993); L. Li, et al. J. Med. Chem. 37:1126 (1994); and L. Li J. Med. Chem. 37:3400 (1994). In brief, tubulin at 1.2 mg/ml (12 μM) was preincubated for 15 min at 26° C. in a 0.24-ml volume of 0.8 M monosodium glutamate (pH 6.6 with NaOH in a 2 M stock solution) with varying drug concentrations. The drug stock solutions were in DMSO, and the final solvent concentration was 4 % (v/v). All concentrations are in terms of the final reaction volume (0.25 ml). The reaction mixtures were chilled on ice, and 10 μl of 10 mM GTP was added to each reaction mixture. Samples were transferred to cuvettes held at 0° C. by an electronic temperature controller in Gilford spectrophotometers. Baselines were established at 350 nm, and polymerization initiated by a temperature jump to 26° C. The jump took about 50 sec to complete. After 20 min, turbidity readings were recorded, and the temperature controller was set to 0C. When depolymerization was complete, turbidity readings were again recorded. […] IC50 values were obtained graphically from inhibition of polymerization by different drug concentrations.
Electrophoretically, homogeneous bovine brain tubulin was purified as described in Example 6.
The tubulin polymerization assay was performed as described in Example 6.

Where [13] appears, read: Tables 1 and 4, read-out: ITP HC50 ± SD (Inhibition of Tubulin Polymerization).
The mark [14] stands for this setting: read-out: IC50, inhibition of tubulin polymerization.

Take `COc1cccc(-c2cc(=O)c3cccnc3[nH]2)c1` [Compound 44]: the GI50 in assay [1] was 93.3 nM; in [2] it was below 10 nM; in assay [3], 55 nM; in [4], 53.7 nM; in [5], 16.2 nM; in assay [6], 52.5 nM. The GI50 is 36.3 nM in assay [7]; 61.7 nM in assay [8]; 135 nM in assay [9]; below 10 nM in [10]; 55 nM in assay [11]; 91.2 nM in assay [12]. In addition, the IC (TGI) was 21.4 to 39.8 nM in [2], 39.8 to 64.6 nM in assay [5], 75.9 to 692 nM with NCI-H226 cell line and 21.4 to 39.8 nM in [10].
With `COc1cccc(-c2cc(=O)c3cc(C)cnc3[nH]2)c1` [Compound 46], the GI50 was 42.7 nM in assay [1]; below 10 nM in assay [2]; 44.7 nM in [3]; 25.7 nM in assay [4]; 19.1 nM in [5]; 37.2 nM in [6]. Also, the 50% growth inhibitory concentration (GI50) was 22.4 nM in assay [7]; 37.2 nM in assay [8]; 95.5 nM in [9]; below 10 nM in assay [10]; 41.7 nM in assay [11]; 43.7 nM in [12]. Moreover, the IC (TGI) in assay [2] was 21.4 to 39.8 nM; in [5] it was 39.8 to 64.6 nM; with NCI-H226 cell line, 75.9 to 692 nM; in assay [10], 21.4 to 39.8 nM.
With `COc1cccc(-c2cc(=O)c3ccc(C)nc3[nH]2)c1` [Compound 47], the GI50 in assay [1] was 33.1 nM; in [2], 11 nM; in assay [3], 53.7 nM; in assay [4], 33.9 nM; in assay [5] it was 18.2 nM; in [6], 30.2 nM. Further, the GI50 in assay [7] was 46.8 nM; in assay [8] it was 53.7 nM; in assay [9], 57.5 nM; in assay [10] it was below 10 nM; in [11] it was 22.4 nM; in assay [12] it was 43.7 nM. The IC (TGI) in assay [2] fell in the range of 21.4 to 39.8 nM; in assay [5], 39.8 to 64.6 nM; in the assay on NCI-H226 cell line it was 75.9 to 692 nM; in assay [10] it was 21.4 to 39.8 nM.
Regarding `Cc1ccc2c(n1)N=C(c1ccc(Cl)cc1)CC2=O` [Compound 65, 2-(4'-Chlorophenyl)-7-methyl-1,8-naphthyridin-4-one], the 50% growth inhibitory concentration (GI50) is 1660 nM in assay [1]; 1000 nM in assay [2]; 4790 nM in assay [3]; 4370 nM in assay [4]; 2950 nM in assay [5]; 4570 nM in assay [6]. Besides, the GI50 in [7] is 3310 nM; in [8] it was 6310 nM; in [9], 4900 nM; in assay [10], 912 nM; in assay [11] it was 2570 nM; in assay [12], 4470 nM. The values for the IC50 in the assay on tubulin (setting [13]) and with tubulin (setting [14]) were 11000 ± 700 nM and 11000 to 32000 nM, respectively.
As to `Cc1cc(C)c2c(n1)N=C(c1ccc(Cl)cc1)CC2=O` [Compound 66, 2-(4'-Chlorophenyl)-5,7-dimethyl-1 ,8-naphthyridin-4-one], the 50% growth inhibitory concentration (GI50) was 6310 nM in assay [1]; 3630 nM in assay [2]; 30200 nM in [3]; 14100 nM in [4]; 25100 nM in [5]; 16200 nM in [6]. Further, the concentration for 50% growth inhibition (GI50) in assay [7] was 14800 nM; in [8] it was 21400 nM; in [9], 19500 nM; in assay [10], 4070 nM; in [11] it was 18200 nM; in assay [12] it was 22400 nM. Further, the IC50 in the assay on tubulin (setting [13]) is 32000 ± 8000 nM; in the assay on tubulin (setting [14]) it was 11000 to 32000 nM.
